Read-outs that look alike come from different tables or passages of the source. [ ]: non-standard residue; d: D form. Sar = CNCC(=O)O
Assays:
[1] = system: mice; assay: Open field test and toxicity of high doses in mice; type: in vivo; conditions: open field, 20 EC50 doses (120 mg/kg)
Protocol: Testing of the influence of the injectable substance based on tetrapeptide (as in example 2) H-Tyr-D-Arg-Phe-Gly-NH2 on the behavior of animals, was provided in the study of the toxicity of high doses of the “open field” test and maintaining balance on a horizontal rod.
The aim of the experiment was to identify an effective dose of the substance that affects the behavior of the animals. It was tested on several animals after administration of different doses of peptide compound.
The experimental and control groups of male mice were taken from the same batch, about the same weight (22-24 g).
The substance was injected intraperitoneally in identical weight amounts to laboratory animals in the experimental and control groups, respectively. […] The measurement was started 15 minutes after injection.
Several groups were organized: without the introduction of the substance, and with the introduction of a solution of morphine or peptide. After 15 from injection we conducted measurement in the following order:
Each animal tested was introduced into a round, not brightly lit arena. The surface is divided into square blocks of 10 cm each. We count locomotor activity of the mouse when it crossed the square. The movement of the mouse in the center of the arena and on the periphery, are recorded separately. We registered the number of times the mouse stands on its hind legs “stand” and the number of times the mouse looks into a “burrow”—ie. holes in the floor. Observations were done visually and were simultaneously entered into a computer using a keyboard (semi-automatic registration).

[2] = system: mice; assay: Acetic acid-induced writhing test in mice; type: in vivo; conditions: for Number of writhings, n (Mean ± SEM): 15 minutes count
Protocol: The acetic acid-induced writhing test is a model of a chemical nociceptive stimulus applied by the intraperitoneal injection of acetic acid solution.
Intraperitoneal injection of substances that irritate serous membranes in mice induces distinctive movements, including contractions of abdominal muscles followed by muscle relaxation, extension of the hind limbs and curving of the back, known as writhing. Mice were given an intraperitoneal injection of 1% acetic acid at a dose of 0.1 mL per 10 g body weight. After the injection the mice were placed in transparent acrylic chambers and counted the number of writhings in each animal for the next 15 minutes. The analgesic effect was evaluated by a reduction in the number of writhings in mice that received the study drug relative to the control group. […] Writhing onset latency in mice was used as an additional parameter for evaluating the efficacy of the substance in the acetic acid-induced writhing test.

[3] = system: rats; assay: Hot plate test in rats; type: in vivo; conditions: for HPL, s (Mean ± SEM): hot plate 52° C.
Protocol: The “Hot Plate” test is based on the reflex that rat licking its' feet when the animal comes in contact with a hot surface. The device is a metal surface with a diameter of 30 cm whose temperature is controlled by software. The site is enclosed by a transparent fence with a height of 40 cm. The temperature of the metal pad was set at exactly 52° C. When placing the animal on the surface, you measure the time until the moment when the animal licks its' foot. When analgesics are administered, the time before the rat licks its' feet increases. The licking latency (HPL) of 40 seconds was used as the maximum allowable time of stimulation. The study was conducted on male rats weighing 160-180 g, 6 animals per dose.

[4] = system: mice; conditions: published data, cited from earlier work
[5] = target: opioid μ-receptors located on GPI (Cavia porcellus, UniProt A0ACM8Q262); assay: Inhibition of electrically stimulated contractions of isolated guinea pig ileum (GPI); type: cell-based; design: amplitude: unit not given here
Chain of opioid μ-receptors located on GPI (A0ACM8Q262 1-400): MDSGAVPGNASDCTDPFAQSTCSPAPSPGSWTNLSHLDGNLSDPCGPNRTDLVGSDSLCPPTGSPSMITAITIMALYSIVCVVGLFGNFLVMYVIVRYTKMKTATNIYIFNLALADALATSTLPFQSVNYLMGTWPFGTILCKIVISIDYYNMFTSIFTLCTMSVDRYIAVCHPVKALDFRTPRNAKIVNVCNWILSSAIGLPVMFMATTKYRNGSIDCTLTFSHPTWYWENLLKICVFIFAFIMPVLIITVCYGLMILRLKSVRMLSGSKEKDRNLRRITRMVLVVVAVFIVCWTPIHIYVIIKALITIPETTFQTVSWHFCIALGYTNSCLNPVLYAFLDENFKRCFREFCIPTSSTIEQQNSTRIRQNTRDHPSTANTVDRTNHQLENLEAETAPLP
Protocol: Effect was assessed by ability to inhibit the contraction caused by electrical stimulation of isolated organs—guinea pig ileum (GPI). Work was carried out on a special apparatus for testing substances for opioid activity on the model of guinea pig ileum. GPI, taken from nonlinear animals were placed in a 10 ml volumetric flask with electrodes inserted containing Krebs solution at 34° C. in a water bath (HOECHST Organbad, Germany) with a thermostat for maintaining a constant temperature in the working cell. The lower end of the GPI is fixed to the vessel at the bottom. The upper end of the ligature was attached to the sensor strength registration device (sensors isometric registration K-30, “Hugo Sachs Elektronik KG”, Germany). The initial tension of the organs was 1 gram. The solution with placed in GPI was being constantly aerated. GPI segments were equilibrated in the Krebs solution for one hour.
GPI contractions were stimulated by plate electrodes with electrical impulses in a series of four rectangular pulses each lasting 0.5 ms and with 1.5 ms intervals, with delays at 7.5 sec. between the series and voltage 80V using a generator of electric impulses (type 215/I, Hugo Sachs Elektronik, Germany). Registration was performed in isometric contraction mode using K30 sensors via two channel amplifiers MS 6601 (“Watanabe”, Japan).
At the beginning stimulation was applied for a minimum of 45 minutes, which allowed reproducible responses to be established.
The tested substance was administered in a solution bathing the organs in a volume of 0.005 to 0.015 ml, to final concentrations of 1×10^−9-1×10^−6 M. Each subsequent introduction of the substance was done 1 minute after the previous dose without washing the organs, on a cumulative basis. […] Active substances were expressed on an indicator pD2 (numerically equal to the negative decimal logarithm of the concentration of a substance that causes 50% of the maximum effect). In other words, the potency of the opioid receptor agonists in the absence and presence of the antagonist was assessed as the negative logarithm of the concentration required to cause 50% of the maximum response (pD2) using the logistic equation described by DeLean A. et al.
During the experiment, the change in GPI amplitude contractions was taken into account and was fixed. Parallel monitoring in 4 chambers with GPI segments for each substance was used.

[6] = system: mice; conditions: subcutaneously to mice, acute pain, ringer solution; application JPS6054400; cited from earlier work

Row | Compound | amplitude ([5]; concentration 1.0E−09 M) | inhibit. effect ([5]; concentration 1.0E−09 M) | amplitude ([5]; concentration 1.4E−06 M) | inhibit. effect ([5]; concentration 1.4E−06 M) | amplitude ([5]; concentration 1.4E−07 M) | inhibit. effect ([5]; concentration 1.4E−07 M) | amplitude ([5]; concentration 1.4E−08 M) | inhibit. effect ([5]; concentration 1.4E−08 M) | amplitude ([5]; concentration 4.0E−09 M) | inhibit. effect ([5]; concentration 4.0E−09 M) | amplitude ([5]; concentration 4.4E−07 M) | inhibit. effect ([5]; concentration 4.4E−07 M) | amplitude ([5]; concentration 4.4E−08 M) | inhibit. effect ([5]; concentration 4.4E−08 M) | other results
1 | CN1CC[C@]23c4c5ccc(O)c4O[C@H]2[C@@H](O)C=C[C@H]3[C@H]1C5 [Morphine, reference compound] |  |  |  |  |  |  |  |  |  |  |  |  |  |  | physical activity reduced [1]: 50-70%; % of mice w/o writhing ([2]; 1 mg/kg subcutaneous): 14.3%; Number of mice w/o writhing/number of mice in group ([2]; 1 mg/kg subcutaneous): 1/7; Writhing onset latency, s (Mean ± SEM) ([2]; 1 mg/kg subcutaneous): 467.1 ± 74.41 s; Number of writhings, n (Mean ± SEM) ([2]; 1 mg/kg subcutaneous 40 minutes before acetic acid): 12.4 ± 3.73 n; % of mice w/o writhing ([2]; 3 mg/kg subcutaneous): 37.5%; Number of mice w/o writhing/number of mice in group ([2]; 3 mg/kg subcutaneous): 3/8; Writhing onset latency, s (Mean ± SEM) ([2]; 3 mg/kg subcutaneous): 695.0 ± 85.00 s; Number of writhings, n (Mean ± SEM) ([2]; 3 mg/kg subcutaneous 40 minutes before acetic acid): 2.1 ± 0.83 n; Proportion of the maximum possible effect (MPE), % ([3]; 5 mg/kg subcutaneous): 68.6%; HPL, s (Mean ± SEM) ([3]; 5 mg/kg subcutaneous): 27.45 ± 4.4 s; Proportion of the maximum possible effect (MPE), % ([3]; 15 mg/kg subcutaneous): 95.7%; HPL, s (Mean ± SEM) ([3]; 15 mg/kg subcutaneous): 38.31 ± 2.63 s; antinociceptive activity, % of MPE ([4]; dosage 7 mg/kg): 50%; antinociceptive activity, % of MPE ([4]; dosage 10 mg/kg): 75%; antinociceptive activity, % of MPE ([4]; dosage 20 mg/kg): 95%
2 | H-Y[dR]FG-NH2 [TP1] | 38.7 | 0.0% | 9.3 | 76.6% | 23.0 | 41.1% | 36.0 | 7.0% | 38.7 | 0.0% | 15.7 | 61.1% | 30.3 | 22.9% | analgesic action, times the activity of morphine [6]: more than 6 times
3 | H-Y[dR]F[Sar]-OH [TP2] | 38.2 | 0.0% | 8.6 | 77.5% | 22.0 | 42.4% | 35.3 | 7.6% | 38.2 | 0.0% | 15.2 | 60.2% | 29.7 | 22.2% | 
